Measured values as given in article PMC10341573, “Design, Synthesis, and Biological Evaluation of Novel Quinazolin-4(3H)-One-Based Histone Deacetylase 6 (HDAC6) Inhibitors for Anticancer Activity” (International Journal of Molecular Sciences, 2023).
Read-outs that look alike come from different tables or passages of the source.

How the values were obtained:
HDAC6 = target: T1, HDAC6 (Homo sapiens, UniProt Q9UBN7); assay: HDAC enzyme activity assay (fluorogenic, Boc-Lys(acetyl)-AMC), HDAC6; type: biochemical; conditions: class IIb HDAC6; mean ± SD, triplicate
T1 construct: Full-length recombinant HDAC6 was purchased from BPS Bioscience; purchased BPS Bioscience
T1 sequence (Q9UBN7 1-1215): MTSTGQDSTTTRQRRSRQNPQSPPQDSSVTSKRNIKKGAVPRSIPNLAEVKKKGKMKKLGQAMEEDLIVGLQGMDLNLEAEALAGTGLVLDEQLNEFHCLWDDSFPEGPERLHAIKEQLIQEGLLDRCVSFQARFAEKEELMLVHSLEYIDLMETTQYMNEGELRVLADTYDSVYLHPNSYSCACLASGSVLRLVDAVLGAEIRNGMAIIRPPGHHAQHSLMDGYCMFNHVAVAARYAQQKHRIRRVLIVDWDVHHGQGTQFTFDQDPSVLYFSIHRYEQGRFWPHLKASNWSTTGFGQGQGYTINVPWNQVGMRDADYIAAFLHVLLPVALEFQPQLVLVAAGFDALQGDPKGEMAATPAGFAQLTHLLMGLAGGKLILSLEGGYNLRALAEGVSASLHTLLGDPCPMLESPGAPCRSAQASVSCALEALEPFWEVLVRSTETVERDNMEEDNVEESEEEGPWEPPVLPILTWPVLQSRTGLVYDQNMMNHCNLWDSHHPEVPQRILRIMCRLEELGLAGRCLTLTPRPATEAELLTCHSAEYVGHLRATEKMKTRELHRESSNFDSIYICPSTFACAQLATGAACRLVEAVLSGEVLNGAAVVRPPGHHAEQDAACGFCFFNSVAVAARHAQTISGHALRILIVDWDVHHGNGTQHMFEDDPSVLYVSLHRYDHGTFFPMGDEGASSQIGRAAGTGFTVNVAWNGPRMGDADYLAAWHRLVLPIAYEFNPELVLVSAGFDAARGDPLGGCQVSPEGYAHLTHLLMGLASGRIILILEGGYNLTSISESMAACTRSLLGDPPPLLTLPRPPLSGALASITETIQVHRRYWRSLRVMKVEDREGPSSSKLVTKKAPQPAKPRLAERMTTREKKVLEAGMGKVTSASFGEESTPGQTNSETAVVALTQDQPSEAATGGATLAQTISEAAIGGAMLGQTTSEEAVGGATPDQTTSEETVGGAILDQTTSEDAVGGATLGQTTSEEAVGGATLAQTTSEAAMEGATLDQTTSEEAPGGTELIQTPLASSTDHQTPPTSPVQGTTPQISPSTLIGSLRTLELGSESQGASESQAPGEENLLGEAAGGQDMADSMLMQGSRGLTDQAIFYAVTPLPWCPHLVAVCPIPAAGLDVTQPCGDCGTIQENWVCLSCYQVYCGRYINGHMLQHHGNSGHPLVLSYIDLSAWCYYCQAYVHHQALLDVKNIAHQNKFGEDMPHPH

MCF7 = assay: MTT cell proliferation assay, MCF7; type: cell-based, human; conditions: MTT, 72 h, mean ± SD, triplicate, read-out: IC50 ± SD MCF7
B16 = assay: MTT cell proliferation assay, B16; type: cell-based, murine; conditions: Mus musculus, B16; MTT, 72 h; mean ± SD, triplicate; read-out: IC50 ± SD B16
HEK 293 = assay: MTT cell proliferation assay, HEK 293; type: cell-based, human; conditions: Homo sapiens, HEK293; MTT, 72 h; mean ± SD, triplicate; read-out: IC50 ± SD HEK 293
cleaved PARP = assay: Western blot of cleaved PARP; type: cell-based, human; conditions: MCF7 and HCT-116 cells, compared to untreated cells
Excerpt: The control had intact nuclei, as depicted by the green fluorescence due to AO binding to dsDNA, in contrast to the apoptotic nuclei of 5c-treated cells depicted by orange fluorescence due to AO staining of ssDNA and RNA. This observation was supported by the protein expression of cleaved poly (ADP-ribose) polymerase (PARP), which represents the degree of apoptosis in cells, as shown in Figure 9B. […] Acridine orange (AO) staining can also be influenced by autophagosomal pH.
On the basis of the results obtained from the cell proliferation assay, further experiments were conducted on MCF7 and HCT-116 cells treated with compound 5c. The cells were harvested, and 0.1 × 10^6 cells were seeded in a 12-well cell culture plate and allowed to adhere properly. The cells were then incubated with 0.1 μM and 1 μM concentrations of compound 5c for 24 h. Cells were pelleted in 1× PBS and lysed using ice-cold RIPA buffer. The protein concentration of the lysate was quantified using the Bradford assay and an equal concentration of sample proteins was run on 12% SDS-PAGE and transferred onto 0.45 μm PVDF membrane (Millipore (St. Louis, MO, USA), Immobilon IPVH00010). […]

MCF7 and HCT-116 cells = assay: Clonogenic assay; type: cell-based, human; conditions: 12–14 days
Protocol: To evaluate the effect of compound 5c on the cell survival of MCF7 and HCT-116 cells, a clonogenic assay was performed. Colony formation of MCF7 and HCT-116 cells was inhibited by compound 5c in a dose-dependent manner, compared to the control cells treated with DMSO (Figure 11).
MCF7 and HCT-116 cells were seeded in a six-well culture plate at a density of 500 cells/well. After cells adhered completely, they were incubated in the culture medium with DMSO, 0.1 μM 5c, and 1 μM 5c. The medium, along with the treatment, was replenished every 3 days for 12–14 days. The colonies formed were fixed with a 3:1 ratio of methanol and glacial acetic acid for 10 min. The wells were then washed with 1× PBS, and cells were stained with 0.5% v/v crystal violet solution for 10 min [55]. Excess stain was washed off in running water, and images were taken after proper drying. Colonies were counted visually or using ImageJ software, NIH (Version 1.53K). The stain taken up by the colonies was dissolved in 0.1% SDS, and absorbance was read at 540 nm. Graphs were plotted using GraphPad Prism 8.0.2.

Cc1ccc(-n2c(SCc3ccc(C(=O)NO)cc3)nc3ccccc3c2=O)cc1 [Compound 5c, N-hydroxy-4-(((4-oxo-3-(p-tolyl)-3,4-dihydroquinazolin-2-yl)thio)methyl)benzamide]
IC50 (HDAC6): 580 ± 50 nM | IC50 (MCF7; Homo sapiens, MCF7, 72 h): 13.7 µM | IC50 (MCF7): 13.7 ± 0.83 µM | IC50 (B16): 15 ± 3.34 µM | IC50 (HEK 293): 35.1 ± 18.7 µM | protein expression of cleaved PARP (cleaved PARP): significantly higher | number of colonies (MCF7 and HCT-116 cells; MCF7 and HCT-116, 0.1 μM): significantly reduced | cell anchorage and growth (MCF7 and HCT-116 cells; MCF7 and HCT-116, 1 μM): almost completely arrested
